# Results from US20260041098A1, “POLYMERIC BATCH TO PREPARE AN ANTIMICROBIAL MATERIAL AND AIR FILTER” (IMPORTADORA Y EXPORTADORA JCN LIMITADA, priority 2021, published 2026).
# Tests used:
# Format in all cases: cell-based
# E. coli ATCC 25922 [1] = experiment: Copper oxychloride agar diffusion test; conditions: 4,250-125,000 ppm tested, 37° C., 24 hours
# Procedure: (§1) An agar diffusion test was conducted for E. coli ATCC 25922 and S. aureus ATCC 6538 cultures. Copper oxychloride was added at different concentrations (4,250 ppm, 8,500 ppm, 17,000 ppm, 32,000 ppm, 60,000 ppm, 125,000 ppm).
# S. aureus ATCC 6538 [2] = experiment: Copper oxychloride agar diffusion test; conditions: 4,250-125,000 ppm tested, 37° C., 24 hours
# Procedure: as §1
# E. coli ATCC 25922 [3] = experiment: Copper oxychloride dilution test
# Procedure: (§2) Additionally, a dilution test was performed using a 250,000 ppm ([…]) stock solution of copper oxychloride. A gradient was prepared using aliquots from 2,500 ppm to 100,000 ppm. A 3×10^5 CFU/mL bacterial culture of S. aureus ATCC 6538 and a 1.25×10^6 CFU/mL culture of E. coli ATCC 25922 were added to each solution.
# S. aureus ATCC 6538 [4] = experiment: Copper oxychloride dilution test; conditions: 5,000 ppm
# Procedure: as §2
# [5] = repeated test, 5,000 ppm (bacterium not named)
structure (smiles),measurement,setting,value
[Cl-].[Cu+2].[Cu+2].[OH-].[OH-].[OH-] [copper oxychloride],concentration at which zones of growth inhibition were observed,E. coli ATCC 25922 [1],"17,000 ppm"
same,concentration at which zones of growth inhibition were observed,S. aureus ATCC 6538 [2],"17,000 ppm"
same,% Efficiency,"E. coli ATCC 25922 [3]; 2,500 ppm",96.0%
same,bacterial growth,"E. coli ATCC 25922 [3]; 2,500 ppm",still grew
same,Final Count,"E. coli ATCC 25922 [3]; 2,500 ppm, initial count 1.25 × 10^6 CFU/mL",5 × 10^4 CFU/mL
same,bacteria eliminated,E. coli ATCC 25922 [3]; [5],99.9%
same,bacterial growth,E. coli ATCC 25922 [3]; [5],no bacterial growth was observed
same,% Efficiency,S. aureus ATCC 6538 [4],99.9%
same,bacterial growth,S. aureus ATCC 6538 [4],no growth
same,Final Count,S. aureus ATCC 6538 [4]; initial count 3 × 10^5 CFU/mL,2 × 10^2 CFU/mL
